From PubChem BioAssay (NCI)
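Growth conditions: 96-well plates. Treatment: test compound, 48 hours, 5 concentrations. Analysis: linear interpolation between bracketing concentrations; unreached endpoints set to highest concentration. Here, GI50 denotes the concentration required for 50% inhibition of growth. TGI: total growth inhibition.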

Assays:
Assay in all cases: NCI-60 cell line screen, 48 h
UO-31 renal = tested on: UO-31 renal
SK-MEL-5 melanoma = tested on: SK-MEL-5 melanoma
SN12C renal = tested on: SN12C renal
A498 renal = tested on: A498 renal
A549 NSCLC = tested on: A549 NSCLC
NCI-H460 lung = tested on: NCI-H460 lung
EKVX NSCLC = tested on: EKVX NSCLC
RXF 393 renal = tested on: RXF 393 renal
DMS 114 small cell lung = tested on: DMS 114 small cell lung
KM20L2 colon = tested on: KM20L2 colon
ACHN renal = tested on: ACHN renal
MOLT-4 leukemia = tested on: MOLT-4 leukemia
SK-MEL-2 melanoma = tested on: SK-MEL-2 melanoma
SNB-19 CNS = tested on: SNB-19 CNS
HCT-15 colon = tested on: HCT-15 colon
HCC-2998 colon = tested on: HCC-2998 colon
LOX IMVI melanoma = tested on: LOX IMVI melanoma
MALME-3M melanoma = tested on: MALME-3M melanoma
XF 498 CNS = tested on: XF 498 CNS
786-0 renal = tested on: 786-0 renal
UACC-257 melanoma = tested on: UACC-257 melanoma
UACC-62 melanoma = tested on: UACC-62 melanoma
NCI-H226 lung = tested on: NCI-H226 lung
HT29 colon = tested on: HT29 colon
SK-MEL-28 melanoma = tested on: SK-MEL-28 melanoma
NCI-H23 lung = tested on: NCI-H23 lung
SF-295 CNS = tested on: SF-295 CNS
COLO 205 colon = tested on: COLO 205 colon
SW-620 colon = tested on: SW-620 colon
CAKI-1 renal = tested on: CAKI-1 renal
HCT-116 colon = tested on: HCT-116 colon
OVCAR-8 ovarian = tested on: OVCAR-8 ovarian
DLD-1 colon = tested on: DLD-1 colon
SNB-75 CNS = tested on: SNB-75 CNS
LXFL 529 NSCLC = tested on: LXFL 529 NSCLC
SF-539 CNS = tested on: SF-539 CNS
HL-60(TB) leukemia = tested on: HL-60(TB) leukemia
DMS 273 small cell lung = tested on: DMS 273 small cell lung
M14 melanoma = tested on: M14 melanoma
NCI-H522 lung = tested on: NCI-H522 lung
SF-268 CNS = tested on: SF-268 CNS
IGROV1 ovarian = tested on: IGROV1 ovarian
HOP-92 NSCLC = tested on: HOP-92 NSCLC
KM12 colon = tested on: KM12 colon
M19-MEL melanoma = tested on: M19-MEL melanoma
SK-OV-3 ovarian = tested on: SK-OV-3 ovarian
K-562 leukemia = tested on: K-562 leukemia
OVCAR-3 ovarian = tested on: OVCAR-3 ovarian
U251 CNS = tested on: U251 CNS
RPMI-8226 leukemia = tested on: RPMI-8226 leukemia
SNB-78 CNS = tested on: SNB-78 CNS
OVCAR-4 ovarian = tested on: OVCAR-4 ovarian
TK-10 renal = tested on: TK-10 renal
HOP-62 NSCLC = tested on: HOP-62 NSCLC
OVCAR-5 ovarian = tested on: OVCAR-5 ovarian
CCRF-CEM leukemia = tested on: CCRF-CEM leukemia

## CCCCCCC[CH2][Sn]([Cl])([Cl])[CH2]CCCCCCC
UO-31 renal
  GI50: 10.6 µM
  TGI: 22.4 µM
SK-MEL-5 melanoma
  GI50: 6.88 µM
  TGI: 19.4 µM
SN12C renal
  GI50: 7.41 µM
  TGI: 19.9 µM
A498 renal
  GI50: 6.51 µM
  TGI: 18.8 µM
A549 NSCLC
  GI50: 17.5 µM
  TGI: 34.3 µM
NCI-H460 lung
  GI50: 13.2 µM
  TGI: 26.8 µM
EKVX NSCLC
  GI50: 10.4 µM
  TGI: 22.2 µM
RXF 393 renal
  GI50: 2.7 µM
  TGI: 9.01 µM
DMS 114 small cell lung
  GI50: 3.93 µM
  TGI: 13.9 µM
KM20L2 colon
  GI50: 11.1 µM
  TGI: 23.2 µM
ACHN renal
  GI50: 7.17 µM
  TGI: 19.9 µM
MOLT-4 leukemia
  GI50: 2.96 µM
  TGI: 10.5 µM
SK-MEL-2 melanoma
  GI50: 2.45 µM
  TGI: 7.47 µM
SNB-19 CNS
  GI50: 7.15 µM
  TGI: 20 µM
HCT-15 colon
  GI50: 5.69 µM
  TGI: 18.7 µM
HCC-2998 colon
  GI50: 4.23 µM
  TGI: 17 µM
LOX IMVI melanoma
  GI50: 3.56 µM
  TGI: 11.5 µM
MALME-3M melanoma
  GI50: 5.2 µM
  TGI: 18.1 µM
XF 498 CNS
  GI50: 4.9 µM
  TGI: 16.5 µM
786-0 renal
  GI50: 4.58 µM
  TGI: 17.1 µM
UACC-257 melanoma
  GI50: 4.38 µM
  TGI: 15.9 µM
UACC-62 melanoma
  GI50: 2.05 µM
  TGI: 4.97 µM
NCI-H226 lung
  GI50: 10.1 µM
  TGI: 22.4 µM
HT29 colon
  GI50: 6.83 µM
  TGI: 20 µM
SK-MEL-28 melanoma
  GI50: 3.82 µM
  TGI: 12.9 µM
NCI-H23 lung
  GI50: 6.84 µM
  TGI: 18.8 µM
SF-295 CNS
  GI50: 12.5 µM
  TGI: 25 µM
COLO 205 colon
  GI50: 6 µM
  TGI: 17.3 µM
SW-620 colon
  GI50: 6.66 µM
  TGI: 19.3 µM
CAKI-1 renal
  GI50: 11 µM
  TGI: 23.2 µM
HCT-116 colon
  GI50: 3.66 µM
  TGI: 15.3 µM
OVCAR-8 ovarian
  GI50: 4.46 µM
  TGI: 16.6 µM
DLD-1 colon
  GI50: 5.37 µM
  TGI: 17.6 µM
SNB-75 CNS
  GI50: 3.67 µM
  TGI: 18.1 µM
LXFL 529 NSCLC
  GI50: 3.05 µM
  TGI: 10.8 µM
SF-539 CNS
  GI50: 4.36 µM
  TGI: 16.6 µM
HL-60(TB) leukemia
  GI50: 3.29 µM
  TGI: 11.2 µM
DMS 273 small cell lung
  GI50: 4.9 µM
  TGI: 16.8 µM
M14 melanoma
  GI50: 6.94 µM
  TGI: 19.5 µM
NCI-H522 lung
  GI50: 2.3 µM
  TGI: 4.95 µM
SF-268 CNS
  GI50: 4.11 µM
  TGI: 15.4 µM
IGROV1 ovarian
  GI50: 7.61 µM
  TGI: 20.3 µM
HOP-92 NSCLC
  GI50: 5.27 µM
  TGI: 18.4 µM
KM12 colon
  GI50: 5.98 µM
  TGI: 18.8 µM
M19-MEL melanoma
  GI50: 9.31 µM
  TGI: 21.3 µM
SK-OV-3 ovarian
  GI50: 16.6 µM
  TGI: 30.2 µM
K-562 leukemia
  GI50: 3.66 µM
  TGI: 19.7 µM
OVCAR-3 ovarian
  GI50: 4.91 µM
  TGI: 17 µM
U251 CNS
  GI50: 2.21 µM
  TGI: 6.09 µM
RPMI-8226 leukemia
  GI50: 2.24 µM
  TGI: 12.6 µM
SNB-78 CNS
  GI50: 6.25 µM
  TGI: 21.4 µM
OVCAR-4 ovarian
  GI50: 10.5 µM
  TGI: 22.4 µM
TK-10 renal
  GI50: 16 µM
  TGI: 29.4 µM
HOP-62 NSCLC
  GI50: 14.5 µM
  TGI: 27.5 µM
OVCAR-5 ovarian
  GI50: 13.3 µM
  TGI: 26.2 µM
CCRF-CEM leukemia
  GI50: 3.27 µM
  TGI: 10.9 µM
